# Experimental data from patent EP0937460A2, “Use of an antidiarrheal for the manufacture of a medicament for the treatment of inflammatory conditions” (Adolor Corporation, priority 1994, dated 1995).
# Read-outs that look alike come from different tables or passages of the source.
# Legend:
# [1] = test system: IL-1β; assay: LPS-stimulated IL-1β production by THP-1 cells; assay type: cell-based, human
# Description: (§1) THP-1 cells were plated into 24-well plates at a density of 1.0 x 10^6 cells per mL in 0.5 mL medium per well. […] For measurement of IL-1α and IL-1β production, THP-1 cells were incubated with 500 ng/mL or 50 ng/mL LPS and incubated for 16 hours. Levels of secreted cytokine were measured in cell supernatants as for TNF. Cell-associated species were measured in cell lysates which were prepared by repetitive freeze-thawing of cells. For in vitro screening, drugs at 10 µM concentration were co-administered with LPS. […] Drug effects on cell viability were assessed by the MTT assay. […] Water-soluble drugs were dissolved in aqueous solutions such as RPMI or deionized H20. The final concentration of DMSO in the incubation medium was at or below 0.01% and that of ethanol was at or below 0. 1%. The effect on cell viability was evaluated by the MTT assay.
# [2] = test system: TNF production; assay: Inhibition of LPS-stimulated TNF production in the mouse macrophage line RAW 264.7 (ELISA); assay type: cell-based; details: RAW cells; for activity at 10 µM: Mus musculus, RAW264.7, 6 h, read-out: TNF LEVEL % Control (LPS alone), Ave. ± S.D.
# Description: Cells were passaged at confluence by scraping and routinely plated at a density of 0.25 x 10^6 and 0.5 x 10^6 cells per T-75 and T-150, respectively.
# Typically, RAW cells were plated at 0.25 x 10^6 cells per well of a 24-well plate, in 0.5 mL media per well on the day prior to experimentation. […] 1%. Drugs were co-administered with the stimulant, LPS. After a 6-hr incubation period with LPS ± drug (n = 3-4), the media from the experimental wells was harvested, the cells were removed by microcentrifugation, and the media assayed for TNF by ELISA. Drugs were screened at 10 µM for their ability to alter TNF production by cells stimulated with 1 µg/mL or 10 ng/mL LPS. Dexamethasone, an anti-inflammatory corticosteroid, served as the reference for inhibition of the LPS response.
# [3] = test system: mice; assay: Skin inflammation induced by 2% sodium lauryl sulfate (SLS) in mice; assay type: in vivo; details: 2% SLS with near saturated verapamil
# Description: Following the 24 hour exposure, the Hilltop chambers were removed and, after 18 hours, skin thickness readings were taken. […] Table
# [4] = test system: TNF mRNA; assay: TPA-induced TNF mRNA expression in hairless mouse skin (RT-PCR); assay type: in vivo; details: verapamil 4% w/v in ethanol, topical; 3 hour time point; p < 0.01
# [5] = test system: KC mRNA; assay: TPA-induced KC mRNA expression in hairless mouse skin (RT-PCR); details: verapamil 4% w/v topical; 3 hour; one of three mice; p = 0.04
# [6] = test system: humans; assay: Skin inflammation models in humans (2% sodium laurel sulfate or 5% nickel sulfate, 24 hour patch test); assay type: in vivo
# Description: Human skin inflammation was elicited by either 2% sodium laurel sulfate in normal volunteers (irritant contact dermatitis) or by 5% nickel sulfate in nickel-sensitive individuals (allergic contact dermatitis) using a 24 hour patch test. Following the elicitation, either topical verapamil formulation or a placebo formulation was applied three times daily for two consecutive days on two respective sites. At the end of the two-day topical treatment, the degree of skin inflammation (i.e., erythema, edema and blister formation was assessed by a trained dermatologist. Skin biopsies were taken from the placebo and the active sites and analyzed for skin thickness and TNF levels using immunohistochemical techniques.
# [7] = test system: TNF production; assay: Inhibition of LPS-stimulated TNF production in the human monocytic cell line THP-1 (ELISA); assay type: cell-based; details: for activity at 10 µM / inhibition at 10 µM: Homo sapiens; for activity at 10 µM: read-out: TNF LEVEL % Control (LPS alone), Ave. ± S.D.; for effectiveness against LPS-stimulated TNF production (in words): 10 µM
# Description: Cultures were maintained by the addition of fresh growth medium to a T-75 or T-150 flask of cells in suspension, or by pelleting the cells and re-suspending them in the appropriate volume of fresh medium. Maximum cell density was 1.0 x 10^6 cells per mL and cultures were seeded at a minimum density of 0.2 x 10^6 cells per ml.
# as §1
# [8] = test system: THP-1 cells; assay: MTT assay of THP-1 cell viability
# Description: as §1
# [9] = test system: IL-1α; assay: LPS-stimulated IL-1α production by THP-1 cells; assay type: cell-based, human
# Description: as §1
# [10] = test system: hairless mice; assay: DNCB-induced contact hypersensitivity in hairless mice, ear swelling; assay type: in vivo, mouse
# Description: Similar to what has been commonly reported by other investigators, the specific protocol used in these studies involved the application of DNCB (in an acetone:olive oil 4:1 vehicle) to the skin on the posterior portion of the back of hairless mice. Five days later, DNCB was applied to the dorsal surface of the ears. At the indicated time point, the mice were euthanized, ear thickness was measured, and the samples were processed for either RNA extraction, protein analysis, or histology.
# Experiments were carried out in an effort to inhibit the DNCB-induced immune reaction with various drugs. […] The left ear was similarly treated with vehicle.
# The ability of amiloride to suppress DNCB-induced ear swelling was also examined. In these experiments, mice were sensitized with DNCB, and, five days later, amiloride (2% w/v in 70% propylene glycol: 30% ethanol) was applied to the right ear and vehicle to the left ear 30 minutes and 8 hours after DNCB challenge.
# [11] = test system: TNF production; assay: Inhibition of TPA-stimulated TNF production in human epidermal keratinocytes (ELISA); assay type: cell-based; details: for activity at 10 µM: epidermal keratinocytes, read-out: TNF LEVEL % Control (LPS alone), Ave. ± S.D.
# [12] = Homo sapiens, HEK cells, DRUG [10 µM], stimulation by TPA 10 ng/mL
# [13] = 6 h, THP-1 cells, DRUG [10 µM], LPS 1 µg/mL
# [14] = LPS-stimulated THP-1 cells, drug 10 µM, read-out: inhibition of TNF production
smiles,measurement,setting,value
"COc1ccc(CCN(C)CCCC(C#N)(c2ccc(OC)c(OC)c2)C(C)C)cc1OC (racemic) [(±)-Verapamil, verapamil]",inhibition at 0.05 µg/mL,"[1]; Homo sapiens, THP-1, 16 h, read-out: inhibition of IL-1β levels",~33%
same,activity at 10 µM,"[2]; DRUG [10 µM], LPS at 10 ng/mL",36 ± 1%
same,"Skin Thickness (mm, n = 4)","[3]; 24 hours occlusion, read 18 hours after removal (2% SLS alone 1.23, untreated 0.59)",0.65 ± 0.09 mm
same,Visual Observation,[3]; 24 hours under occlusion,Normal
same,skin TNF mRNA levels compared to TPA alone,[4],significant reduction
same,KC mRNA levels,[5],significant suppression
same,patients in whom dermatitis resolved faster on treated sites,[6]; challenged with 2% sodium laurel sulfate,2 out of 3
same,patients with skin thickness less on treated sites than placebo sites,[6]; topical verapamil three times daily for two days,4 out of 6
same,patients with less TNF in the skin biopsies than placebo sites,"[6]; topical verapamil three times daily for two days, immunohistochemistry",4 out of 6
same,activity at 10 µM,"[7]; THP-1, 6 h",46 ± 9%
same,inhibition at 10 µM,"[7]; THP-1, read-out: inhibition of TNF production",54%
same,THP-1 cell viability (MTT assay),[8]; highest dose tested,did not impact
same,inhibition at 0.05 µg/mL,"[9]; Homo sapiens, THP-1, 16 h, read-out: inhibition of IL-1α levels",40 to 50%
same,swelling of the ear after DNCB challenge,"[10]; verapamil 4% w/v topical, initial experiment",some suppression
same,ear swelling after DNCB challenge,"[10]; verapamil 5% w/v topical, n = 6, repeated experiment",significantly reduced
"N=C(N)NC(=O)c1nc(Cl)c(N)nc1N [Amiloride, amiloride]",level of cell-associated and secreted IL-1β (in words),"[1]; THP-1 cells, 10 µM",reduce the level
same,activity at 10 µM,"[2]; DRUG [10 µM], LPS at 10 ng/mL",75 ± 25%
same,effectiveness against LPS-stimulated TNF production (in words),[2]; drug 10 µM,moderately effective
same,activity at 10 µM,[11]; [12],≥ 100%
same,activity at 10 µM,[7]; [13],56 ± 15%
same,inhibition at 10 µM,[7]; [14],40%
same,effectiveness against LPS-stimulated TNF production (in words),[7]; LPS-stimulated THP-1 cells,comparatively more effective
same,"IC50 value (50% of the maximal inhibition, as defined by effects at 10 µM)","[7]; LPS-stimulated TNF production, THP-1 cells",within the same range
same,THP-1 cell viability (MTT assay),[8],did not impact
same,level of cell-associated and secreted IL-1α (in words),"[9]; THP-1 cells, 10 µM",reduce the level
same,"ear thickness, % of pre-challenge values","[10]; DNCB + amiloride 2% w/v topical (DNCB alone 135%), p < 0.002",113%
NCC(O)c1ccc(O)c(O)c1 (stereo not shown) [Arterenol],TNF LEVEL % Control (LPS alone); Ave. ± S.D.,"[2]; DRUG [10 µM], LPS at 10 ng/mL",38±4 % Control
same,TNF LEVEL % Control (LPS alone); Ave. ± S.D.,"[11]; HEK cells, DRUG [10 µM], stimulation by TPA 10 ng/mL",47±10 % Control
same,TNF LEVEL % Control (LPS alone); Ave. ± S.D.,"[7]; THP-1 cells, DRUG [10 µM], LPS 1 µg/mL",1±0.2 % Control
"C[C@@H]1C[C@H]2[C@@H]3CCC4=CC(=O)C=C[C@]4(C)[C@@]3(F)[C@@H](O)C[C@]2(C)[C@@]1(O)C(=O)CO [Dexamethasone, dexamethasone]",activity at 10 µM,"[2]; DRUG [10 µM], LPS at 10 ng/mL",39 ± 27%
same,inhibition of the stimulated production of TNF (decrease of secreted TNF vs LPS alone),"[2]; drug 10 µM, LPS dose not stated",60%
same,inhibition at 10 µM,"[11]; Homo sapiens, Keratinocyte, keratinocytes, TPA 10 ng/mL, drug 10 µM, read-out: inhibition of the response to TPA (TNF production)",> 55%
same,activity at 10 µM,[11]; [12],48 ± 12%
same,activity at 10 µM,[7]; [13],33 ± 14%
same,inhibition at 10 µM,[7]; [14],67%
"CCOC(=O)C1(c2ccccc2)CCN(CCC(C#N)(c2ccccc2)c2ccccc2)CC1 [Diphenoxylate, diphenoxylate]",activity at 10 µM,[11]; Homo sapiens,68 ± 10%
"COC(=O)C1=C(C)NC(C)=C(C(=O)OC(C)C)C1c1cccc2nonc12 (stereo not shown) [Isradipine, 3,5-Pyridinecarboxylic acid, 4-(4-benzofurazanyl)-l,4-dihydro-2,6-dimethyl, methyl 1-methylethyl ester]",effectiveness against LPS-stimulated TNF production (in words),[2]; drug 10 µM,as effective as dexamethasone
same,activity at 10 µM,[11]; [12],60 ± 7%
same,activity at 10 µM,[7]; [13],77 ± 8%
same,effectiveness against LPS-stimulated TNF production (in words),[7]; LPS-stimulated THP-1 cells,much less effective
